Test results published in paper PMC5218480 (PLoS ONE, 2017).

Test system: MV-4-11 cells
Assay: Gene expression microarray analysis (Affymetrix PrimeView) and GSEA
Type: cell-based, human
Design: RFU PODN (11730768_x_at) / Fold change /veh PODN (11730768_x_at) / RFU LINC00158 (11744669_a_at) / Fold change /veh LINC00158 (11744669_a_at) / RFU DUSP10 (11751237_a_at) / Fold change /veh DUSP10 (11751237_a_at) / RFU ID3 (11757404_x_at) / Fold change /veh ID3 (11757404_x_at) / RFU PLEKHG5 (11737974_s_at) / Fold change /veh PLEKHG5 (11737974_s_at) / RFU LRRC4B (11730491_at) / Fold change /veh LRRC4B (11730491_at) / RFU GIMAP4 (11747438_a_at) / Fold change /veh GIMAP4 (11747438_a_at) / RFU KRT8 (11758183_x_at) / Fold change /veh KRT8 (11758183_x_at) / RFU CNN1 (11734310_a_at) / Fold change /veh CNN1 (11734310_a_at) / RFU VPS37D (11726825_at) / Fold change /veh VPS37D (11726825_at) / RFU C10orf10 (11716522_x_at) / Fold change /veh C10orf10 (11716522_x_at) / RFU KIR2DL2 /// KIR2DL4 /// KIR2DL5A /// KIR2DL5B /// KIR2DS1 /// KIR2DS2 /// KIR2DS3 /// KIR2DS4 /// KIR3DL3 /// KIR3DL3 /// KIR3DS1 (11738374_at) / Fold change /veh KIR2DL2 /// KIR2DL4 /// KIR2DL5A /// KIR2DL5B /// KIR2DS1 /// KIR2DS2 /// KIR2DS3 /// KIR2DS4 /// KIR3DL3 /// KIR3DL3 /// KIR3DS1 (11738374_at) / RFU C1QL1 (11718748_at) / Fold change /veh C1QL1 (11718748_at) / RFU TMPRSS4 (11747572_a_at) / Fold change /veh TMPRSS4 (11747572_a_at) / RFU HAMP (11756126_x_at) / Fold change /veh HAMP (11756126_x_at) / RFU RNFT2 (11725882_a_at) / Fold change /veh RNFT2 (11725882_a_at) / RFU NR4A2 (11747474_a_at) / Fold change /veh NR4A2 (11747474_a_at) / RFU ABCC12 (11746883_a_at) / Fold change /veh ABCC12 (11746883_a_at) / RFU TMEM136 (11760407_x_at) / Fold change /veh TMEM136 (11760407_x_at) / RFU CLDN22 /// WWC2 (11732394_at) / Fold change /veh CLDN22 /// WWC2 (11732394_at) / RFU HLA-DPB1 (11760878_x_at) / Fold change /veh HLA-DPB1 (11760878_x_at) / RFU SPINT1 (11716480_a_at) / Fold change /veh SPINT1 (11716480_a_at) / RFU GAP43 (11754022_s_at) / Fold change /veh GAP43 (11754022_s_at) / RFU A4GNT (11735810_at) / Fold change /veh A4GNT (11735810_at) / RFU PRB3 (11715151_x_at) / Fold change /veh PRB3 (11715151_x_at) / RFU TUBB4B (11761932_at) / Fold change /veh TUBB4B (11761932_at) / RFU CAPN14 (11732068_a_at) / Fold change /veh CAPN14 (11732068_a_at) / RFU TMCC2 (11721928_a_at) / Fold change /veh TMCC2 (11721928_a_at) / RFU IRGQ (11745062_a_at) / Fold change /veh IRGQ (11745062_a_at) / RFU FAM174B (11720279_a_at) / Fold change /veh FAM174B (11720279_a_at) / RFU TMPRSS4 (11748680_a_at) / Fold change /veh TMPRSS4 (11748680_a_at) / RFU FAM212B (11763350_a_at) / Fold change /veh FAM212B (11763350_a_at) / RFU PLEKHG5 (11743358_a_at) / Fold change /veh PLEKHG5 (11743358_a_at) / RFU ZSCAN30 (11745921_a_at) / Fold change /veh ZSCAN30 (11745921_a_at) / RFU CMKLR1 (11741424_a_at) / Fold change /veh CMKLR1 (11741424_a_at) / RFU LOC101060620 /// MAPK8IP1 (11723275_at) / Fold change /veh LOC101060620 /// MAPK8IP1 (11723275_at) / RFU SPTSSB (11747773_x_at) / Fold change /veh SPTSSB (11747773_x_at) / RFU PRSS12 (11739890_at) / Fold change /veh PRSS12 (11739890_at) / RFU BIN1 (11741810_x_at) / Fold change /veh BIN1 (11741810_x_at) / RFU WNT11 (11732464_a_at) / Fold change /veh WNT11 (11732464_a_at) / RFU C10orf10 (11716521_a_at) / Fold change /veh C10orf10 (11716521_a_at) / RFU C5orf56 (11738089_at) / Fold change /veh C5orf56 (11738089_at) / RFU CYB561 (11721691_x_at) / Fold change /veh CYB561 (11721691_x_at) / RFU ANKRD19P (11752326_a_at) / Fold change /veh ANKRD19P (11752326_a_at) / RFU OR2T12 /// OR2T33 /// OR2T8 (11738714_s_at) / Fold change /veh OR2T12 /// OR2T33 /// OR2T8 (11738714_s_at) / RFU VCAN (11748164_a_at) / Fold change /veh VCAN (11748164_a_at) / RFU JSRP1 (11732532_at) / Fold change /veh JSRP1 (11732532_at) / RFU KRTAP10-11 (11738290_x_at) / Fold change /veh KRTAP10-11 (11738290_x_at) / RFU MYO3A (11730013_a_at) / Fold change /veh MYO3A (11730013_a_at) / RFU EBF3 (11725865_a_at) / Fold change /veh EBF3 (11725865_a_at) / RFU CAMK2N1 (11719241_x_at) / Fold change /veh CAMK2N1 (11719241_x_at) / RFU C5orf56 (11738088_a_at) / Fold change /veh C5orf56 (11738088_a_at) / RFU OLFML3 (11715873_a_at) / Fold change /veh OLFML3 (11715873_a_at) / RFU LOC100653217 /// NTM (11731650_a_at) / Fold change /veh LOC100653217 /// NTM (11731650_a_at) / RFU MAPK11 (11762145_a_at) / Fold change /veh MAPK11 (11762145_a_at) / RFU FIZ1 (11724087_x_at) / Fold change /veh FIZ1 (11724087_x_at) / RFU OASL (11726364_x_at) / Fold change /veh OASL (11726364_x_at) / RFU SOX15 (11748057_x_at) / Fold change /veh SOX15 (11748057_x_at) / RFU CD79A (11719716_a_at) / Fold change /veh CD79A (11719716_a_at) / RFU HIST1H1D (11736915_at) / Fold change /veh HIST1H1D (11736915_at) / RFU CASKIN2 (11723855_a_at) / Fold change /veh CASKIN2 (11723855_a_at) / RFU LOC730098 (11760151_x_at) / Fold change /veh LOC730098 (11760151_x_at) / RFU OR4N2 (11742367_at) / Fold change /veh OR4N2 (11742367_at) / RFU PRRT2 (11749266_a_at) / Fold change /veh PRRT2 (11749266_a_at) / RFU SNX32 (11753110_a_at) / Fold change /veh SNX32 (11753110_a_at) / RFU CDHR5 (11726645_a_at) / Fold change /veh CDHR5 (11726645_a_at) / RFU RCAN1 (11760418_a_at) / Fold change /veh RCAN1 (11760418_a_at) / RFU FAM167A (11723789_a_at) / Fold change /veh FAM167A (11723789_a_at) / RFU FAM26E (11764081_at) / Fold change /veh FAM26E (11764081_at) / RFU ISYNA1 (11749810_s_at) / Fold change /veh ISYNA1 (11749810_s_at) / RFU ACY1 (11761880_at) / Fold change /veh ACY1 (11761880_at) / RFU 11764098_at / Fold change /veh 11764098_at / RFU SAMD14 (11745864_x_at) / Fold change /veh SAMD14 (11745864_x_at) / RFU NPB (11741838_a_at) / Fold change /veh NPB (11741838_a_at) / RFU TMPRSS6 (11731388_a_at) / Fold change /veh TMPRSS6 (11731388_a_at) / RFU KRTAP10-2 (11738614_at) / Fold change /veh KRTAP10-2 (11738614_at) / RFU ARHGAP8 /// PRR5-ARHGAP8 (11727945_x_at) / Fold change /veh ARHGAP8 /// PRR5-ARHGAP8 (11727945_x_at) / RFU KRTAP5-7 /// NADSYN1 (11734609_at) / Fold change /veh KRTAP5-7 /// NADSYN1 (11734609_at) / RFU RASL12 (11751679_a_at) / Fold change /veh RASL12 (11751679_a_at) / RFU CDKN2B (11736163_a_at) / Fold change /veh CDKN2B (11736163_a_at) / RFU PRF1 (11729649_at) / Fold change /veh PRF1 (11729649_at) / RFU, ZNF638 /// ZNF638-IT1 / Fold change vs veh, ZNF638 /// ZNF638-IT1 / RFU, PANK3 / Fold change vs veh, PANK3 / RFU, SH3YL1 / Fold change vs veh, SH3YL1 / RFU, ZEB2 / Fold change vs veh, ZEB2 / RFU, NRIP1 / Fold change vs veh, NRIP1 / RFU, PTTG1IP / Fold change vs veh, PTTG1IP / RFU, CAPN2 / Fold change vs veh, CAPN2 / RFU, MED14 / Fold change vs veh, MED14 / RFU, SNORA58 / Fold change vs veh, SNORA58 / RFU, C1orf63 / Fold change vs veh, C1orf63 / RFU, LRRFIP1 / Fold change vs veh, LRRFIP1 / RFU, NDUFAF7 / Fold change vs veh, NDUFAF7 / RFU, SLC12A2 / Fold change vs veh, SLC12A2 / RFU, IBTK / Fold change vs veh, IBTK / RFU, ESF1 / Fold change vs veh, ESF1 / Fold change vs veh, TMEM50B / RFU, TAOK1 / Fold change vs veh, TAOK1 / RFU, ACBD3 / Fold change vs veh, ACBD3 / RFU, TMA16 / Fold change vs veh, TMA16 / RFU, RWDD3 / Fold change vs veh, RWDD3 / RFU, BCAT1 / Fold change vs veh, BCAT1 / RFU, EDEM3 / Fold change vs veh, EDEM3 / RFU, TMEM33 / Fold change vs veh, TMEM33 / RFU, WDR75 / Fold change vs veh, WDR75 / RFU, AHCTF1 / Fold change vs veh, AHCTF1 / RFU, TFRC / Fold change vs veh, TFRC / RFU, ZDHHC17 / Fold change vs veh, ZDHHC17 / RFU, NOM1 / Fold change vs veh, NOM1 / RFU, ARL8B / Fold change vs veh, ARL8B / RFU, ZBTB11 / Fold change vs veh, ZBTB11 / RFU, TAMM41 / Fold change vs veh, TAMM41 / RFU, KIAA1704 /// LOC100996395 / Fold change vs veh, KIAA1704 /// LOC100996395 / RFU, ING1 / Fold change vs veh, ING1 / RFU, TRMT61B / Fold change vs veh, TRMT61B / RFU, FUBP3 / Fold change vs veh, FUBP3 / RFU, TP53 / Fold change vs veh, TP53 / RFU, TNKS2 / Fold change vs veh, TNKS2 / RFU, ZFP14 / Fold change vs veh, ZFP14 / RFU, ACTR2 / Fold change vs veh, ACTR2 / RFU, PPP3R1 / Fold change vs veh, PPP3R1 / RFU, PIK3R1 / Fold change vs veh, PIK3R1 / RFU, HNRNPA1 / Fold change vs veh, HNRNPA1 / RFU, RNF170 / Fold change vs veh, RNF170 / RFU, ZNF28 / Fold change vs veh, ZNF28 / RFU, RNGTT / Fold change vs veh, RNGTT / RFU, OGT / Fold change vs veh, OGT / RFU, BRD1 / Fold change vs veh, BRD1 / RFU, MARS / Fold change vs veh, MARS / RFU, ZNF655 / Fold change vs veh, ZNF655 / RFU, FAHD1 / Fold change vs veh, FAHD1 / RFU, BDP1 / Fold change vs veh, BDP1 / RFU, LRRCC1 / Fold change vs veh, LRRCC1 / RFU, ARID1A / Fold change vs veh, ARID1A / RFU, ZNF146 / Fold change vs veh, ZNF146 / RFU, ZNF330 / Fold change vs veh, ZNF330 / RFU, GPN3 / Fold change vs veh, GPN3 / RFU, C9orf123 / Fold change vs veh, C9orf123 / RFU, N4BP2L2 / Fold change vs veh, N4BP2L2 / RFU, ARFIP1 / Fold change vs veh, ARFIP1 / RFU, FAM179B / Fold change vs veh, FAM179B / RFU, BCL10 / Fold change vs veh, BCL10 / RFU, UHRF1BP1L / Fold change vs veh, UHRF1BP1L / RFU, BET1 / Fold change vs veh, BET1 / RFU, CNOT2 / Fold change vs veh, CNOT2 / RFU, ZNF268 / Fold change vs veh, ZNF268 / Fold change vs veh, ZNF507 / RFU, DGCR2 / Fold change vs veh, DGCR2 / RFU, WDSUB1 / Fold change vs veh, WDSUB1 / Fold change vs veh, HSP90B1 /// MIR3652 / RFU, ADSS / Fold change vs veh, ADSS / RFU, GK / Fold change vs veh, GK / RFU, ZNF148 / Fold change vs veh, ZNF148 / RFU, TAF9 / Fold change vs veh, TAF9 / RFU, SLC1A5 / Fold change vs veh, SLC1A5 / RFU, SLMO2 / Fold change vs veh, SLMO2 / RFU, ABCC4 / Fold change vs veh, ABCC4 / RFU, LOC101060439 /// RAP1B / Fold change vs veh, LOC101060439 /// RAP1B / RFU, RFX7 / Fold change vs veh, RFX7 / RFU, GTPBP10 / Fold change vs veh, GTPBP10 / RFU, CNEP1R1 / Fold change vs veh, CNEP1R1 / RFU, BIVM-ERCC5 /// ERCC5 / Fold change vs veh, BIVM-ERCC5 /// ERCC5 / RFU, ILF3 / Fold change vs veh, ILF3 / RFU 11762660_at / Fold change /veh 11762660_at / RFU VCAN (11757783_s_at) / Fold change /veh VCAN (11757783_s_at) / RFU DDX43 (11728927_at) / Fold change /veh DDX43 (11728927_at) / RFU KRT8 (11758188_x_at) / Fold change /veh KRT8 (11758188_x_at) / RFU NKD1 (11759106_at) / Fold change /veh NKD1 (11759106_at) / RFU SRD5A1 (11742802_a_at) / Fold change /veh SRD5A1 (11742802_a_at) / RFU TPSAB1 /// TPSB2 (11721975_s_at) / Fold change /veh TPSAB1 /// TPSB2 (11721975_s_at) / RFU GSTM3 (11746129_a_at) / Fold change /veh GSTM3 (11746129_a_at) / RFU IL23R (11737362_x_at) / Fold change /veh IL23R (11737362_x_at) / RFU TMEM51 (11727254_a_at) / Fold change /veh TMEM51 (11727254_a_at) / RFU PIWIL2 (11732686_x_at) / Fold change /veh PIWIL2 (11732686_x_at) / RFU ORM1 (11744905_x_at) / Fold change /veh ORM1 (11744905_x_at) / RFU CCDC152 (11743942_at) / Fold change /veh CCDC152 (11743942_at) / RFU ECM1 (11717891_a_at) / Fold change /veh ECM1 (11717891_a_at) / RFU IL23R (11748794_a_at) / Fold change /veh IL23R (11748794_a_at) / RFU TNFAIP8L3 (11732012_x_at) / Fold change /veh TNFAIP8L3 (11732012_x_at) / RFU MBOAT4 (11741988_at) / Fold change /veh MBOAT4 (11741988_at) / RFU 11764193_at / Fold change /veh 11764193_at / RFU TMEM53 (11763286_at) / Fold change /veh TMEM53 (11763286_at) / RFU MAGEB2 (11727129_at) / Fold change /veh MAGEB2 (11727129_at) / RFU TMEM200A (11744735_a_at) / Fold change /veh TMEM200A (11744735_a_at) / RFU CCDC152 (11751479_a_at) / Fold change /veh CCDC152 (11751479_a_at) / RFU FAM211A (11726209_a_at) / Fold change /veh FAM211A (11726209_a_at) / RFU RGS16 (11746705_a_at) / Fold change /veh RGS16 (11746705_a_at) / RFU VCAN (11755009_s_at) / Fold change /veh VCAN (11755009_s_at) / RFU RHOB (11743442_s_at) / Fold change /veh RHOB (11743442_s_at) / RFU RGS16 (11720943_a_at) / Fold change /veh RGS16 (11720943_a_at) / RFU RGS16 (11720944_at) / Fold change /veh RGS16 (11720944_at) / RFU, VPS4B / Fold change vs veh, VPS4B / RFU, CREB1 / Fold change vs veh, CREB1 / RFU, DNAJC13 / Fold change vs veh, DNAJC13 / RFU, GNAQ / Fold change vs veh, GNAQ / RFU, CDK5R1 / Fold change vs veh, CDK5R1 / RFU, ZRANB3 / Fold change vs veh, ZRANB3 / RFU, CUL4A / Fold change vs veh, CUL4A / RFU, CCNY / Fold change vs veh, CCNY / RFU, UFL1 / Fold change vs veh, UFL1 / RFU, COG3 / Fold change vs veh, COG3 / RFU, DIAPH2 / Fold change vs veh, DIAPH2 / RFU, SKA2 / Fold change vs veh, SKA2 / RFU, AFF3 / Fold change vs veh, AFF3 / RFU, LMF1 / Fold change vs veh, LMF1 / RFU, IPO11 / Fold change vs veh, IPO11 / RFU, DFFB / Fold change vs veh, DFFB / RFU, FOXP1 / Fold change vs veh, FOXP1 / RFU, CARD8 / Fold change vs veh, CARD8 / RFU, STRN3 / Fold change vs veh, STRN3 / RFU, ADK / Fold change vs veh, ADK / RFU, RASSF2 / Fold change vs veh, RASSF2 / RFU, WIPF1 / Fold change vs veh, WIPF1 / RFU, LARP1B / Fold change vs veh, LARP1B / RFU, RASA1 / Fold change vs veh, RASA1 / RFU, RB1 / Fold change vs veh, RB1 / RFU, PPFIA1 / Fold change vs veh, PPFIA1 / RFU, MAT2A / Fold change vs veh, MAT2A / RFU, CCT5 / Fold change vs veh, CCT5 / RFU, WDR92 / Fold change vs veh, WDR92 / RFU, CUX1 / Fold change vs veh, CUX1 / RFU, TTC7A / Fold change vs veh, TTC7A / RFU, TMEM135 / Fold change vs veh, TMEM135 / RFU, DEPTOR / Fold change vs veh, DEPTOR / RFU, CPM / Fold change vs veh, CPM / RFU, DNAJB6 / Fold change vs veh, DNAJB6 / RFU, CACNA2D3 / Fold change vs veh, CACNA2D3 / RFU, DTX4 / Fold change vs veh, DTX4 / RFU, TFCP2 / Fold change vs veh, TFCP2 / RFU, GMCL1 /// GMCL1P1 / Fold change vs veh, GMCL1 /// GMCL1P1 / RFU, AEBP2 / Fold change vs veh, AEBP2 / RFU, SNHG1 /// SNORD22 /// SNORD25 /// SNORD26 /// SNORD27 /// SNORD28 /// SNORD29 /// SNORD31 / Fold change vs veh, SNHG1 /// SNORD22 /// SNORD25 /// SNORD26 /// SNORD27 /// SNORD28 /// SNORD29 /// SNORD31 / Fold change (Aza/veh), C12orf56 (ProbeSet 11735607_a_at) / Fold change (ACY-1035/veh), C12orf56 (ProbeSet 11735607_a_at) / Fold change (Aza/veh), FGFR1OP (ProbeSet 11751329_s_at) / Fold change (ACY-1035/veh), FGFR1OP (ProbeSet 11751329_s_at) / Fold change (Aza/veh), VPS36 (ProbeSet 11739960_a_at) / Fold change (ACY-1035/veh), VPS36 (ProbeSet 11739960_a_at) / RFU SYPL1 (11715823_x_at) / Fold change /veh SYPL1 (11715823_x_at) / RFU IGFBP7 (11715501_s_at) / Fold change /veh IGFBP7 (11715501_s_at) / RFU REEP3 (11722064_at) / Fold change /veh REEP3 (11722064_at) / RFU IGLL1 (11728026_x_at) / Fold change /veh IGLL1 (11728026_x_at): dose or concentration left out as unconfirmed
Details: MV-4-11 cells, 48 hours

Nc1ncn([C@@H]2O[C@H](CO)[C@@H](O)[C@H]2O)c(=O)n1 [azacitidine]
Fold change /veh RGS16 (11746705_a_at): 1.56
